The record followed here is ChEMBL document CHEMBL5465560, “Selectivity Literature for EUbOPEN Chemogenomic Library” (2024).

The target of experiment [1] is Serine/threonine-protein kinase VRK2 (Homo sapiens) (UniProt Q86Y07). The experiment in a line: Selectivity interaction (KinomeScan (DiscoverX)) EUB0000595a VRK2. The conditions noted are these: at 10 µM.
Experiment [2] has as its target Dual specificity mitogen-activated protein kinase kinase 1 (Homo sapiens, UniProt Q02750). The experiment in a line: Selectivity interaction (ActivX KiNativ screen (ex vivo kinase selectivity in human PBMCs)) EUB0001619a MAP2K1. Type of experiment: cell-based. The note with it: PBMC, at 1 µM.
The target of experiment [3] is T1, Histone-lysine N-methyltransferase SUV39H1 (Homo sapiens) (UniProt O43463).
T1 sequence (whole entry): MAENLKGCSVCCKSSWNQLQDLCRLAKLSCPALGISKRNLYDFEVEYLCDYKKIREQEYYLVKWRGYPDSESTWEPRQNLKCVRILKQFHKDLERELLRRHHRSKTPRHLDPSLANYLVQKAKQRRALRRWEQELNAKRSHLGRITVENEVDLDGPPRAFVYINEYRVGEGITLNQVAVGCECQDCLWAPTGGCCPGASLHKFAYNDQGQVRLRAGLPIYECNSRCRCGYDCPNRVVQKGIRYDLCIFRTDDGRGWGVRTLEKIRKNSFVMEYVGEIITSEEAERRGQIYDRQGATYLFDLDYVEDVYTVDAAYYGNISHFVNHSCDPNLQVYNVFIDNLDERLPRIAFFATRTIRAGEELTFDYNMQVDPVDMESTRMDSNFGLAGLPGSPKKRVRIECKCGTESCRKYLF
The conditions noted are these: at 10 µM.

For experiment [4], the target named is T2, Interleukin-1 receptor-associated kinase 4 (Homo sapiens) (UniProt Q9NWZ3).
T2 sequence (whole entry): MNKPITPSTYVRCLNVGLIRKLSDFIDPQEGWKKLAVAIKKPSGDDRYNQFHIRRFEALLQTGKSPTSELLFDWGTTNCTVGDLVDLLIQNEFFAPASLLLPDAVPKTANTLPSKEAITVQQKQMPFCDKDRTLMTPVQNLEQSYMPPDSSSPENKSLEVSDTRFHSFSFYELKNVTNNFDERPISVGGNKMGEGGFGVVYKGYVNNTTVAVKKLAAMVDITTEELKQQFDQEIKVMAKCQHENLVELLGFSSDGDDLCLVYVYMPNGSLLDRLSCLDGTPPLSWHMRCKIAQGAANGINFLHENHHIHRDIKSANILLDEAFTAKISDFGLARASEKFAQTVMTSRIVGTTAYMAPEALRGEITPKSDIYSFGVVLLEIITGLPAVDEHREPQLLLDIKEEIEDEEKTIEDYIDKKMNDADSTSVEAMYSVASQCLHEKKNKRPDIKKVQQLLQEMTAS
The experiment in a line: Selectivity interaction (KinomeScan (DiscoverX)) EUB0000045b IRAK4.

Experiment [5] deals with Angiopoietin-1 receptor (Homo sapiens) (UniProt Q02763). The experiment is described as follows: Selectivity interaction (ProQinase) EUB0000171b TEK. The conditions noted are these: at 5 µM.
Chain of Angiopoietin-1 receptor (Homo sapiens) (Q02763 whole entry, the tested form may be a part): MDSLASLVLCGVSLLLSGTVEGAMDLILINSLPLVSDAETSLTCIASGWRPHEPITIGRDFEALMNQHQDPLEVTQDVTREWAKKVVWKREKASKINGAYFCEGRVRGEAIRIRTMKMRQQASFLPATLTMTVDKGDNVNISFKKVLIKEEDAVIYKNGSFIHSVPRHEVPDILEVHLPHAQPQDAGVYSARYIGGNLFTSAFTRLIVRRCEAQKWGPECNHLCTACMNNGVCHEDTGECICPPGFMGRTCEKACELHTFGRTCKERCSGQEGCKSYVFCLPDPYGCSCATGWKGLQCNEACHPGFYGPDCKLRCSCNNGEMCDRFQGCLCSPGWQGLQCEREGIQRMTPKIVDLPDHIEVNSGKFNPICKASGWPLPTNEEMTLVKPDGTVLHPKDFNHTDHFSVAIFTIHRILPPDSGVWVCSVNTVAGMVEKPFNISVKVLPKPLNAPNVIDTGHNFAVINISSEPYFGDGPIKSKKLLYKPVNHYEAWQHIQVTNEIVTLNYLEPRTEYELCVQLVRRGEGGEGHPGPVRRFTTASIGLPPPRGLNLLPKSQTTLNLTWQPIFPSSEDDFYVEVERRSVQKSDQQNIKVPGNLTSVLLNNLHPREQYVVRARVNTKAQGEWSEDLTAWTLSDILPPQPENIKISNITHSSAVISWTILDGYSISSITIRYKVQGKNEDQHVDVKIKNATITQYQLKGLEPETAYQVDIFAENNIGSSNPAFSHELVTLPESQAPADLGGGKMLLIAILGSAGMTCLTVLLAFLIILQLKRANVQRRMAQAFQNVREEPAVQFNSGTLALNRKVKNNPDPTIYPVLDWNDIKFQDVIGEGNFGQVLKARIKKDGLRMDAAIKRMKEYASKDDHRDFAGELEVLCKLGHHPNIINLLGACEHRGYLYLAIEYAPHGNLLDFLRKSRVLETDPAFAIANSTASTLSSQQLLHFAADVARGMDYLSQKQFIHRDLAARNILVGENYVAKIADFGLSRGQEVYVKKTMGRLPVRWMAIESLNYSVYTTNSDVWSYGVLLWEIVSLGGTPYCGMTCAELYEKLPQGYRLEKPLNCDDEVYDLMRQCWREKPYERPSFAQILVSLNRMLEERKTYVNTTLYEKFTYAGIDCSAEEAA
Experiment [6] addresses Phosphatidylinositol 4-phosphate 3-kinase C2 domain-containing subunit beta (Homo sapiens) (UniProt O00750). The experiment is described as follows: Selectivity interaction (Ambit KINOMEscan and KiNATiv profiling in Jurkat cells) EUB0000090b PIK3C2B. Type of experiment: cell-based. The conditions noted are these: at 1 µM.
The target of experiment [7] is Interleukin-1 receptor-associated kinase 1 (Homo sapiens) (UniProt P51617). The experiment is described as follows: Selectivity interaction (Ambit KINOMEscan and KiNATiv profiling in Jurkat cells) EUB0000090b IRAK1. It counts as cell-based. The note with it: at 1 µM.
The target of experiment [8] is Platelet-derived growth factor receptor beta (Homo sapiens, UniProt P09619). The experiment in a line: Selectivity interaction (Kinase panel (Carna Biosciences)) EUB0001542aTs PDGFRB. The note with it: at 1 µM.
Experiment [9] has as its target Mitogen-activated protein kinase 14 (Homo sapiens, UniProt Q16539). The experiment in a line: Selectivity interaction (Kinase panel (33PanQinase(R) Activity Assay)) EUB0000877a MAPK14.
Experiment [10] addresses Cyclin-dependent kinase 16 (Homo sapiens) (UniProt Q00536). The experiment is described as follows: Selectivity interaction (KinomeScan (DiscoverX)) EUB0000655a CDK16. The conditions noted are these: at 10 µM.
Experiment [11] concerns Phosphatidylinositol 4,5-bisphosphate 3-kinase catalytic subunit alpha isoform (Homo sapiens), P42336 [Q546K]. The experiment is described as follows: (§1) Selectivity interaction (KinomeScan (DiscoverX)) EUB0000092b PIK3CA. The note with it: at 10 µM.
Chain of Phosphatidylinositol 4,5-bisphosphate 3-kinase catalytic subunit alpha isoform (Homo sapiens), P42336 [Q546K] (P42336 whole entry Q546K, canonical isoform): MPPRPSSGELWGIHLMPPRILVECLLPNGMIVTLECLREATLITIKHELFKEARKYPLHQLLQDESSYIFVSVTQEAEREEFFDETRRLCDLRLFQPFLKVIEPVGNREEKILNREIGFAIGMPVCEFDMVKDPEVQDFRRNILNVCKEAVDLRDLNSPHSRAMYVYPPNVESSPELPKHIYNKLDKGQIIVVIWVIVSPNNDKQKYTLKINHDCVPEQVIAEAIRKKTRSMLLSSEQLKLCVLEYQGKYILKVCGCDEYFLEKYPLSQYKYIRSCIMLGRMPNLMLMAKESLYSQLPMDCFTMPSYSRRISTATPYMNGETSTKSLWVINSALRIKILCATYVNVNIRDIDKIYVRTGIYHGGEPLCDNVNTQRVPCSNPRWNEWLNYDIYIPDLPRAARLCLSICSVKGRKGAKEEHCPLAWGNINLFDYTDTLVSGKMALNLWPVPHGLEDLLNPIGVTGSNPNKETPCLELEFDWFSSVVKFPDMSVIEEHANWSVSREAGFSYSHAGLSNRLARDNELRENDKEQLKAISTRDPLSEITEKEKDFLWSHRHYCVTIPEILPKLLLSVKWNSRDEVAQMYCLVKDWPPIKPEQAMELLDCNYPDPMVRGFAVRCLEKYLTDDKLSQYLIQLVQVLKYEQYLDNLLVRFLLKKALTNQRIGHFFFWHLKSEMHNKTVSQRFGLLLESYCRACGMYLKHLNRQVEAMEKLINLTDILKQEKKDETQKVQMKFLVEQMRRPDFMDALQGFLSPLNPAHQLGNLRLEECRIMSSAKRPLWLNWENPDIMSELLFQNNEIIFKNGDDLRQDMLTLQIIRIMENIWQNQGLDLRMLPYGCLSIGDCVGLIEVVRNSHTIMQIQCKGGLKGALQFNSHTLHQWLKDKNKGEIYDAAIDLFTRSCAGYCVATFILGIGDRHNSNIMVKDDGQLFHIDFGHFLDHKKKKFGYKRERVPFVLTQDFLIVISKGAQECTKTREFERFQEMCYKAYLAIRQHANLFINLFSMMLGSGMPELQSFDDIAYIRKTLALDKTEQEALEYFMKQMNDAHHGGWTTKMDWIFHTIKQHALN
Experiment [12] deals with Phosphatidylinositol 4,5-bisphosphate 3-kinase catalytic subunit alpha isoform (Homo sapiens), P42336 [M1043I]. The description is as §1. The note with it: at 10 µM.
Experiment [13] has as its system Phosphatidylinositol 4,5-bisphosphate 3-kinase catalytic subunit alpha isoform (Homo sapiens), P42336 [H1047L]. The description is as §1. The note with it: at 10 µM.
The subject of experiment [14] is Phosphatidylinositol 4,5-bisphosphate 3-kinase catalytic subunit alpha isoform (Homo sapiens), P42336 [C420R]. Described as §1. The conditions noted are these: at 10 µM.
The test system of experiment [15] is Phosphatidylinositol 4,5-bisphosphate 3-kinase catalytic subunit alpha isoform (Homo sapiens), P42336 [E542K]. The description is as §1. The note with it: at 10 µM.
Experiment [16] has as its system Phosphatidylinositol 4,5-bisphosphate 3-kinase catalytic subunit alpha isoform (Homo sapiens), P42336 [E545A]. The description is as §1. The conditions noted are these: at 10 µM.
In experiment [17] the test system is Phosphatidylinositol 4,5-bisphosphate 3-kinase catalytic subunit alpha isoform (Homo sapiens), P42336 [E545K]. Described as §1. The conditions noted are these: at 10 µM.
Chain of Phosphatidylinositol 4,5-bisphosphate 3-kinase catalytic subunit alpha isoform (Homo sapiens), P42336 [E545K] (P42336 whole entry E545K, canonical isoform): as the sequence (P42336 whole entry Q546K, canonical isoform) above, with E545K, K546Q counted along it
In experiment [18] the target is T3, RNA 5'-monophosphate methyltransferase (Homo sapiens) (UniProt Q7Z5W3).
T3 sequence (whole entry): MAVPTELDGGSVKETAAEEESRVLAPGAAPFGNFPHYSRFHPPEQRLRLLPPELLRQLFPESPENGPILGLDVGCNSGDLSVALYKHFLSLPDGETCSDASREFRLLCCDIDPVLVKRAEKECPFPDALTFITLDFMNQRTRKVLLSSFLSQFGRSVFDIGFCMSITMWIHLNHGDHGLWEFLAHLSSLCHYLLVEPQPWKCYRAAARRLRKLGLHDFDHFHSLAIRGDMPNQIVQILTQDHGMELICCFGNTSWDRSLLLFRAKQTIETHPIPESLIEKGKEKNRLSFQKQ
The experiment in a line: Selectivity interaction (Methyltransferase screen (radiometric assays, panel of 8 PRMTs, 21 protein lysine methyltransferases, 3 DNA methyltransferases, and one RNA methyltransferase)) EUB0000272b BCDIN3D.

Experiment [19] concerns the target Calcium/calmodulin-dependent protein kinase type 1D (Homo sapiens) (UniProt Q8IU85). The experiment is described as follows: Selectivity interaction (KinomeScan (DiscoverX)) EUB0000229b CAMK1D. The conditions noted are these: at 10 µM.

Chain of Calcium/calmodulin-dependent protein kinase type 1D (Homo sapiens) (Q8IU85 whole entry, looked up): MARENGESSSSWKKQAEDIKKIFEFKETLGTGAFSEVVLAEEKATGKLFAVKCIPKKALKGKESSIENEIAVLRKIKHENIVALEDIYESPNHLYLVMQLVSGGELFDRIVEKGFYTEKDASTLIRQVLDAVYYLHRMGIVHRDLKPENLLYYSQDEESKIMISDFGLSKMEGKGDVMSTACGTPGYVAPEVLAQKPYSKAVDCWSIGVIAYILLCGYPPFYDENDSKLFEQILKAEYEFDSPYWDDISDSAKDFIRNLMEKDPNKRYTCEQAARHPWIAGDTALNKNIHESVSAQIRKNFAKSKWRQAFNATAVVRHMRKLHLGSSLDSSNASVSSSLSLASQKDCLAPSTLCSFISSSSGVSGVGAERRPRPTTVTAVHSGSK
Chain of Phosphatidylinositol 4,5-bisphosphate 3-kinase catalytic subunit alpha isoform (Homo sapiens), P42336 [C420R] (P42336 whole entry C420R, canonical isoform): as the sequence (P42336 whole entry Q546K, canonical isoform) above, with C420R, K546Q counted along it
Chain of Mitogen-activated protein kinase 14 (Q16539 whole entry): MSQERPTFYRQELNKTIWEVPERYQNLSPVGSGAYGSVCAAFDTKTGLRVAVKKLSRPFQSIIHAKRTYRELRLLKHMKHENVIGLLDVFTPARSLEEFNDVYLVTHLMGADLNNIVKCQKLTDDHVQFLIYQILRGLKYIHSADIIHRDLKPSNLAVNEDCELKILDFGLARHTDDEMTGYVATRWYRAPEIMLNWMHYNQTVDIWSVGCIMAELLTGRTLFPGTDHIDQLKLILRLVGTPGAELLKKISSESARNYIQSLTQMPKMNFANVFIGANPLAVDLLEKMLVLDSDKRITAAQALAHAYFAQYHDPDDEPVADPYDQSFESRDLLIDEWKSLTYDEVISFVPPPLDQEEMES

In experiment [1], `COCC(=O)NC/C=C/c1ccc2ncnc(Nc3ccc(Oc4ccc(C)nc4)c(C)c3)c2c1` [CP-724714] registered a % of control of 100%.
`N#Cc1cccc(-c2c[nH]c3ncnc(N4CCOCC4)c23)c1` yielded a % of inhibition in [2] of 0%.
`CNCCN1CCC(c2cc(CN(C)C(=O)c3cccc(Oc4ccccc4)c3)ccn2)CC1`: in experiment [3], the % activity is above 90%.
On to `C=CC(=O)Nc1cc(-n2c(=O)ccc3cnc4ccc(-c5ccc(NS(C)(=O)=O)cc5)cc4c32)ccc1C`, for which the % of control in experiment [4] (at 1 µM) came to 84%; in [4] (at 10 µM), 100%.
`C=CC(=O)Nc1cccc(C(=O)Nc2ccc(Nc3cc(-c4[nH]c(SC)nc4C)ccn3)cc2)c1` registered a % of control in [5] of 96%.
Consider `CN(C)C/C=C/C(=O)Nc1ccc(C(=O)N2CCCC(Nc3ncc(Cl)c(-c4c[nH]c5ccccc45)n3)C2)cc1` (stereo unspecified), for which the figures for the % of control in experiment [6] and in experiment [7] were 94% and 97%, respectively.
With `Cn1cc(Nc2nccc(N3CC4CCC(C3)N4C(=O)[C@@H]3CC3(F)F)n2)cn1`, the % of inhibition in experiment [8] is 66%.
Usually IC50 stands for the point on the concentration scale where inhibition reaches its midpoint. Read a high IC50 as a need for much substance. Consider `CCC(=O)N1CC[C@H](Nc2ncnc3c2CN(c2cnc(OC)c(C(F)(F)F)c2)CC3)C1` [LENIOLISIB], for which the IC50 in [9] is above 10 µM.
For the compound `CN(C)CCOc1ccc(-c2nc(-c3ccncc3)c(-c3ccc4c(c3)CC/C4=N\O)[nH]2)cc1`, in experiment [10], the % of control was found to be 100%.
Turning to `CCC(=O)N1CCN(c2ccc(-n3c(=O)ccc4cnc5ccc(-c6cnc7ccccc7c6)cc5c43)cc2C(F)(F)F)CC1`, the % of control in [11] is 6.8%; in experiment [12], 8.6%; in experiment [13], 2.6%; in [14], 0.7%; in experiment [15] it was 1%; in [16], 1%. In experiment [17], this compound gave a % of control of 0.6%.
For `Cc1cc(C)cc([C@H]2c3cc(C)ccc3NC(=O)CN2C(=O)c2ccc(Br)s2)c1`, the % of activity in [18] (at 1 µM) was 96%; in [18] (at 10 µM), 99.3%.
On to `COc1cc(N(C)c2ccnc3ccc(C(F)(F)F)cc23)cc(OC)c1OC`, for which, in experiment [19], the % binding was determined as 59%.
